Measurements published in patent US8575193B2, “N-substituted tetrahydroisoquinoline/isoindoline hydroxamic acid compounds” (4SC AG, priority 2008, dated 2013).
Counter-ions that a name gives are not always drawn.

Legend:
rHDAC3 = molecular target: T1, rHDAC3 (Homo sapiens, UniProt O15379); assay: rHDAC3 enzymatic assay (recombinant FLAG-HDAC3); format: biochemical; settings: FLAG-HDAC3 from insect cells; 6 μM Ac-NH-GGK(Ac)-AMC, 2 h at 30° C.; read-out: rHDAC3 [pIC50] (converted)
T1 construct: FLAG; made in house; host or cells: baculovirus-infected Sf21 insect cells
T1 sequence (O15379 whole entry): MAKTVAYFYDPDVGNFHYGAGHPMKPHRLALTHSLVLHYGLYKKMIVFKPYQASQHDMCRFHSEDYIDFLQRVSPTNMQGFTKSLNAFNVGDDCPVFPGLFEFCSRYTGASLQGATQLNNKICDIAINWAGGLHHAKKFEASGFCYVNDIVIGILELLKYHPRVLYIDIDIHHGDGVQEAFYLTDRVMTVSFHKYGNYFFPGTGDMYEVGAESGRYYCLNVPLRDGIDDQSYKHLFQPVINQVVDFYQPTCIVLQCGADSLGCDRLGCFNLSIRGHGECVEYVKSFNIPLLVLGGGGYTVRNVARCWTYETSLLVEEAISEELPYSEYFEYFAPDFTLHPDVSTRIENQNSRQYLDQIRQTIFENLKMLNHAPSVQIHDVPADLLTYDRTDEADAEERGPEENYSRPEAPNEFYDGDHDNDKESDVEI
T1 sequence (Q9Y618 whole entry partner): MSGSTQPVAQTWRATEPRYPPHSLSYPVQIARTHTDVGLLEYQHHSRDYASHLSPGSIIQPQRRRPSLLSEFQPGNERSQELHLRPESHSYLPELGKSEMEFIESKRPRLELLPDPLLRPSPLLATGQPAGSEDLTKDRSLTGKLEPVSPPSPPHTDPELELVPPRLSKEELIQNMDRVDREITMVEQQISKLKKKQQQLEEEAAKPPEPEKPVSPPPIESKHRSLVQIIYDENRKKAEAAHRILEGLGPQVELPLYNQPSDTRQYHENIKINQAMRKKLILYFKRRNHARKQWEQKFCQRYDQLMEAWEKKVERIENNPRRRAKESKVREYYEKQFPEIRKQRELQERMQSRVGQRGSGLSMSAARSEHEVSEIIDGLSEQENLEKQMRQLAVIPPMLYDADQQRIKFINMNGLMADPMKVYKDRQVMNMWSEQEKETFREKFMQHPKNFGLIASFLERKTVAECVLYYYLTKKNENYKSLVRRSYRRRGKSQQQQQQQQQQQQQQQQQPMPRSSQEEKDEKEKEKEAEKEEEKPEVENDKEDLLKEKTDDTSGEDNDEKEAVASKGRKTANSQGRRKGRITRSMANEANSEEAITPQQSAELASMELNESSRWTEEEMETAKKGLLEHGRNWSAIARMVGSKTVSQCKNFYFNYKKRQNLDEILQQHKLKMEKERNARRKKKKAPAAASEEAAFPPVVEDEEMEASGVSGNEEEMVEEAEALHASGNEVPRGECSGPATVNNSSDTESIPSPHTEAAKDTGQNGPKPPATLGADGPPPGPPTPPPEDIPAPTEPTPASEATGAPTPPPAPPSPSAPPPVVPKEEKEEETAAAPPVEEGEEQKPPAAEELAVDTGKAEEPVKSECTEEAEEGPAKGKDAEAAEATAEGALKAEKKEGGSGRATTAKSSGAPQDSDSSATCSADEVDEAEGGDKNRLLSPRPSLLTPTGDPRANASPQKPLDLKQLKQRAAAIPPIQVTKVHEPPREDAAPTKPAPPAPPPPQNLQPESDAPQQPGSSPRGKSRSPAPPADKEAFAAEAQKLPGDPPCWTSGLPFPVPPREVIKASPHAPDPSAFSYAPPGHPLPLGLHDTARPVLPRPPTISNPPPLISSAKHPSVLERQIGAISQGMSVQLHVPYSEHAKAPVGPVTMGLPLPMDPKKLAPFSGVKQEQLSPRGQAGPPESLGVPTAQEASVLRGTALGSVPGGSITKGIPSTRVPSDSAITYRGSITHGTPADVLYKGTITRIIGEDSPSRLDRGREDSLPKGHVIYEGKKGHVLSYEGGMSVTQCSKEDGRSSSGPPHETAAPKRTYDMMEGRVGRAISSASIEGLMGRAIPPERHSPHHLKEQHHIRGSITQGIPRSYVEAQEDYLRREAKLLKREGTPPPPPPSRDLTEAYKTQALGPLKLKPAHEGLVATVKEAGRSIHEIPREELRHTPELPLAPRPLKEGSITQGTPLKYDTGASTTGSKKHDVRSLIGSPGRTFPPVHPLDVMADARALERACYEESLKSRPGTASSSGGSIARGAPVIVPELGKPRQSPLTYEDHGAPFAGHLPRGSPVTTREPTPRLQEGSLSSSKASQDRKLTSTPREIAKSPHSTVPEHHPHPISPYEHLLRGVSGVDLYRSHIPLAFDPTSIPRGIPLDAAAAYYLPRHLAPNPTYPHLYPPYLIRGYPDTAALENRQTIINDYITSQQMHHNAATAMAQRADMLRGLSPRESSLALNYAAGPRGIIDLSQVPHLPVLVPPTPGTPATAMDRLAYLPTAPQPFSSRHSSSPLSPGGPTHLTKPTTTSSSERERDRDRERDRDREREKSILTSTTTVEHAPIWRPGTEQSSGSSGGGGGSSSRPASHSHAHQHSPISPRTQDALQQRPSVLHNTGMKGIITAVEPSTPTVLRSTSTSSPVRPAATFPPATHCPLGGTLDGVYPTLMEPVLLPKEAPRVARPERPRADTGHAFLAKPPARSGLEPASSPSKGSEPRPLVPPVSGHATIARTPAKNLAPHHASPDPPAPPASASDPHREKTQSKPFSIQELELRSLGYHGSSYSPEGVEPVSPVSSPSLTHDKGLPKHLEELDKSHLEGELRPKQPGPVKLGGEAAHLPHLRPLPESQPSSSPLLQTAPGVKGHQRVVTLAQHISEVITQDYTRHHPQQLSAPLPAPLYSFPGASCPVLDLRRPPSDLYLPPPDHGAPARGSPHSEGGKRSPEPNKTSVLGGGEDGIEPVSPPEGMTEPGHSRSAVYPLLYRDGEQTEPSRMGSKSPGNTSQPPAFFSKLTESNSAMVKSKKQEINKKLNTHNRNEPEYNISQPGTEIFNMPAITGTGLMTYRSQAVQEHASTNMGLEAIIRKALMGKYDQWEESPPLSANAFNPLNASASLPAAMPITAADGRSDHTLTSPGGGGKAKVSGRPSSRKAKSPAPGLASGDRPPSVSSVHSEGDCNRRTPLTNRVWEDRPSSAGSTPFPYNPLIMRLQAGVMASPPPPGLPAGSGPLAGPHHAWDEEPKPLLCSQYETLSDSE
Excerpt: (§1) Human HDAC1 and HDAC6 fused with the FLAG epitope are stably expressed in HEK293 cells while human HDAC3 and HDAC8 fused with the FLAG epitope are overexpressed in baculo-virus infected insect (Sf21) cells. To ensure stability of FLAG-HDAC3 the SMRT protein is co-expressed in the corresponding insect cells. […] FLAG-HDAC3 and FLAG-HDAC8 are also purified by M2-agarose affinity chromatography after mass cultivation of the insect cells and cell lysis.
(§2) The HDAC enzyme activity assay is done as described by Wegener et al. (Chem. & Biol. 10, 61-68, 2003). Briefly 40 μl of a 1:100 dilution (=0.4 μl) nuclear HeLa extract (mixture of class I and II HDACs), 29 μl enzyme buffer (15 mM Tris HCl pH 8.1, 0.25 mM EDTA, 250 mM NaCl, 10% v:v glycerol) and 1 μl test compound are added to a well of a 96 well microtiter plate and reaction started by addition of 3 μl substrate (Ac-NH-GGK(Ac)-AMC; final concentration 25 μM and final volume […]). […] After incubation at room temperature for further 40 min, fluorescence is measured using a Wallac Victor 1420 multilabel counter (Ex 355 nm, Em 460 nm) for quantification of AMC (7-amino-4-methylcoumarin) generated by trypsine cleavage of the deacetylated peptide. […] The corresponding pIC50 values of the compounds for HDAC inhibitory activity are determined from the concentration-effect curves by means of non-linear regression (Graphpad Prism software).
(§3) The HDAC1, HDAC3 and HDAC6 enzymatic assays are done with slight modifications with recombinant FLAG-HDAC1 and FLAG-HDAC6 proteins isolated from HEK293 cell lysates or recombinant FLAG-HDAC3 isolated from insect cells, respectively. The HDAC8 enzymatic assay using recombinant FLAG-HDAC8 isolated from insect cells is done with a different substrate. About 4.5 ng/well FLAG-HDAC1 and 3.1 ng/well FLAG-HDAC6 (dependent on batches and specific activity) are incubated with 6 μM or 10 μM Ac-NH-GGK(Ac)-AMC substrate, respectively, for 3 h at 30° C. About 1.7 ng/well FLAG-HDAC3 is incubated with 6 μM Ac-NH-GGK(Ac)-AMC substrate for 2 h at 30° C., while approximately 130 ng/well FLAG-HDAC8 is incubated with 50 μM Ac-RHK(Ac)K(Ac)-AMC substrate for 3 h at 30° C. Termination of the reaction and all further steps are done as described for HeLa cell nuclear extracts as a source for HDAC enzymatic activity. The corresponding pIC50 values of the compounds for HDAC1, HDAC3, HDAC6 and HDAC8 inhibitory activity are determined from the concentration-effect curves by means of non-linear regression.

[1] = Cellular cytotoxicity assay (Alamar Blue/Resazurin), A549; format: cell-based; settings: human, A549 cells; A549, 72 hours incubation, Resazurin; read-out: A549 Cytotoxicity [pIC50] (converted)
Protocol: (§4) The anti-proliferative activity of the compounds as described herein, is evaluated with various solid and hematological cancer cell lines using the Alamar Blue (Resazurin) cell viability assay (O'Brien et al, Eur J Biochem 267, 5421-5426, 2000). Resazurin is reduced to the fluorescent resorufin by cellular dehydrogenase activity, correlating with viable, proliferating cells. Test compounds are dissolved as 20 mM solutions in dimethylsulfoxide (DMSO) and subsequently diluted in semi-logarithmic steps. The cancer cell lines are seeded into 96 well flat bottom plates at respective cell densities in a volume of 200 μl per well to allow continuous proliferation during the experiment. 24 hours after seeding 1 μl each of the compound dilutions is added into each well of the 96 well plate. Wells containing untreated control cells are filled with 200 μl DMEM medium containing 0.5% v:v DMSO. The cells are then incubated with the substances for 72 hours at 37° C. in a humidified atmosphere containing 5% carbon dioxide. To determine the viability of the cells, 20 μl of a Resazurin solution (Sigma; 90 mg/l) are added. After 4 hours incubation at 37° C. the fluorescence is measured at an extinction of 544 nm and an emission of 590 nm. For the calculation of the cell viability the emission value from untreated cells is set as 100% viability and the emission rates of treated cells are set in relation to the values of untreated cells. Viabilities are expressed as % values. The corresponding pIC50 values of the compounds for cytotoxic activity are determined from the concentration-effect curves by means of non-linear regression.

[2] = Cellular cytotoxicity assay (Alamar Blue/Resazurin), HeLa; format: cell-based; settings: human, HeLa cells, 72 hours incubation, Resazurin, read-out: HeLa Cytotoxicity [pIC50] (converted)
Protocol: as §4

rHDAC8 = molecular target: T2, rHDAC8 (Homo sapiens, UniProt Q9BY41); assay: rHDAC8 enzymatic assay (recombinant FLAG-HDAC8); format: biochemical; settings: FLAG-HDAC8 from insect cells; 50 μM Ac-RHK(Ac)K(Ac)-AMC, 3 h at 30° C.; read-out: rHDAC8 [pIC50] (converted)
T2 construct: FLAG; made in house; host or cells: baculovirus-infected Sf21 insect cells
T2 sequence (Q9BY41 1-377): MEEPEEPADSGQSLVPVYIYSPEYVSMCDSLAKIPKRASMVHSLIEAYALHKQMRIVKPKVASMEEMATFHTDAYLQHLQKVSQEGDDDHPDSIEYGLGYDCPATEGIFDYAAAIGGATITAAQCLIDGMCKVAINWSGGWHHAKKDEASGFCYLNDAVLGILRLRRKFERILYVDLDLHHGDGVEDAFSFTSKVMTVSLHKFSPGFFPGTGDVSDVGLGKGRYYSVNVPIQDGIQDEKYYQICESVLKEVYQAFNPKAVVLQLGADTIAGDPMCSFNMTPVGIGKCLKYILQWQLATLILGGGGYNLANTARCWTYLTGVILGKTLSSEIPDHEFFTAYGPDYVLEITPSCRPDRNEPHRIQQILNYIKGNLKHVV
Excerpt: as §1, §2, §3

rHDAC1 = molecular target: T3, rHDAC1 (Homo sapiens, UniProt Q13547); assay: rHDAC1 enzymatic assay (recombinant FLAG-HDAC1); format: biochemical; settings: FLAG-HDAC1 from HEK293; 6 μM Ac-NH-GGK(Ac)-AMC, 3 h at 30° C.; read-out: rHDAC1 [pIC50] (converted)
T3 construct: FLAG; made in house
T3 sequence (Q13547 whole entry): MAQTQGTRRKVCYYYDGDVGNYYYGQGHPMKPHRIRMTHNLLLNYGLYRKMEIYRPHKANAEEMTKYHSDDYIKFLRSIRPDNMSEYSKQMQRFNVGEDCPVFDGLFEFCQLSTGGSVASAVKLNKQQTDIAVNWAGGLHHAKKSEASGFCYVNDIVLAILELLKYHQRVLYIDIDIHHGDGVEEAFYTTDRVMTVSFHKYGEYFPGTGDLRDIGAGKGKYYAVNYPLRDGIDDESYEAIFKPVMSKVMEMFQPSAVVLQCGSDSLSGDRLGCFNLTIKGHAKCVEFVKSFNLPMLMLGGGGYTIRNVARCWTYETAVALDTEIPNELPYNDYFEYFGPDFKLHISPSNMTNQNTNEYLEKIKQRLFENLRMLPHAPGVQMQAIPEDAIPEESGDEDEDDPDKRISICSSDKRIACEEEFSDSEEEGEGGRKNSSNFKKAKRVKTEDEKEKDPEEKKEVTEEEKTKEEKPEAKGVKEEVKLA
Excerpt: as §1, §2, §3

| Structure (SMILES) | IC50 (rHDAC3) | IC50 (rHDAC8) | IC50 (rHDAC1) | IC50 at 72 h [1] | IC50 at 72 h [2] |
| --- | --- | --- | --- | --- | --- |
| O=C(NO)c1ccc2c(c1)CCN(C(=O)Cc1c[nH]c3ccccc13)C2 [Example 1, N-Hydroxy-2-(indol-3-ylacetyl)-1,2,3,4-tetrahydroisoquinoline-6-carboxamide hydrochloride] | 1 to 10 µM | 1000 to 10000 nM | 0.1 to 10 µM | 1 to 100 µM | 1 to 100 µM |
| O=C(NO)c1ccc2c(c1)CCN(C(=O)C1CCOC1)C2 (stereo not shown) [Example 13, N-Hydroxy-2-(tetrahydrofuran-3-ylcarbonyl)-1,2,3,4-tetrahydroisoquinoline-6-carboxamide] | 10 to 100 µM | 1000 to 10000 nM | 10 to 100 µM | > 100 µM | > 100 µM |
| COCCOCC(=O)N1CCc2cc(C(=O)NO)ccc2C1 [Example 11, N-Hydroxy-2-[(2-methoxyethoxy)acetyl]-1,2,3,4-tetrahydroisoquinoline-6-carboxamide] | 10 to 100 µM | 1000 to 10000 nM | 10 to 100 µM | > 100 µM | > 100 µM |

Now from value to compound, other results behind:

| IC50 (rHDAC3) | IC50 (rHDAC8) | IC50 (rHDAC1) | Structure (SMILES) | IC50 at 72 h [1] | IC50 at 72 h [2] |
| --- | --- | --- | --- | --- | --- |
| 10 to 100 µM | 10 to 1000 nM | 0.1 to 10 µM | O=C(NO)c1ccc2c(c1)CN(C(=O)Cc1cccnc1)CC2 [Example 19, N-Hydroxy-2-(pyridin-3-ylacetyl)-1,2,3,4-tetrahydroisoquinoline-7-carboxamide hydrochloride] | > 100 µM | 1 to 100 µM |
| 10 to 100 µM | 1000 to 10000 nM | 0.1 to 10 µM | O=C(NO)c1ccc2c(c1)CCN(C(=O)C1CC1)C2 [Example 16, N-Hydroxy-2-(cyclopropylcarbonyl)-1,2,3,4-tetrahydroisoquinoline-6-carboxamide] | > 100 µM | > 100 µM |
